Results taken from patent publication US12653190B2, “Heteroaryl-triazole compounds as pesticides” (Bayer Aktiengesellschaft, priority 2020, dated 2026).

Columns and labels:
Format in all cases: in vivo
[1] = test system: green peach aphid (Myzus persicae); assay: Myzus persicae spray test; conditions: foliar, 120 h, after 5 days, Chinese cabbage leaf disks
Procedure, shortened: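 Chinese cabbage leaf disks infested with all aphid instars were sprayed with compound in acetone/DMF, diluted in water with 1000 ppm alkylarylpolyglycol ether emulsifier. Mortality (%) scored after 5 days, 100% meaning all aphids killed.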

[2] = test system: adult cat fleas (Ctenocephalides felis); assay: Ctenocephalides felis in-vitro contact test, adult cat flea; conditions: 5 μg/cm^2 (=500 g/ha), after 48 hours, read-out: efficacy (fleas dead or moribund)
Procedure, shortened: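 Compound in acetone coated onto inner walls of glass tubes (900 ppm solution giving 5 μg/cm^2); after drying, 5-10 adult fleas added and kept at room temperature. At 48 h, fleas placed on 45-50 °C plate ≤5 min; immotile or uncoordinated ones scored dead/moribund; efficacy as % dead/moribund.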

[3] = test system: fall armyworm larvae (Spodoptera frugiperda); assay: Spodoptera frugiperda spray test; conditions: in Zea mays, 168 h
Procedure, shortened: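 Maize leaf sections were sprayed with compound in acetone/dimethylformamide diluted in water with 1000 ppm emulsifier, dried, then infested with larvae. Mortality in % was scored after 7 days, 100% meaning all caterpillars killed.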

[4] = test system: green peach aphid (Myzus persicae); assay: Myzus persicae oral test; conditions: 120 h, 4 ppm, after 5 days
Description: • Solvent: 100 parts by weight acetone
To produce a suitable preparation of active compound, 1 part by weight of active compound is mixed with the stated amount of solvent, and the concentrate is diluted with water to the desired concentration.
50 μL compound solution is filled in microtiter plates and 150 μL IPL41 insect medium (33%+15% sugar) is added to obtain a total volume of 200 μL per well. Afterwards the plates are sealed with parafilm through which a mixed population of the green peach aphid (Myzus persicae) can suck on the compound preparation.
After 5 days mortality in % is determined. 100% means all aphids have been killed and 0% means none of the aphids have been killed.

[5] = test system: adult brown dog ticks (Rhipicephalus sanguineus); assay: Rhipicephalus sanguineus in-vitro contact test, adult brown dog ticks; conditions: 5 μg/cm^2 (=500 g/ha), after 48 hours, read-out: efficacy (ticks dead or moribund)
Description: Rhipicephalus sanguineus—In-Vitro Contact Tests with Adult Brown Dog Ticks
9 mg compound is solved in 1 mL acetone and diluted with acetone to the desired concentration. 250 μL of the test solution is filled in 25 mL glass test tubes and homogeneously distributed on the inner walls by rotation and tilting on a shaking device (2 h at 30 rpm). With a compound concentration of 900 ppm, an inner surface of 44.7 cm^2 and a homogeneous distribution, a dose of 5 μg/cm^2 is achieved.
After the solvent has evaporated, each test tube is filled with 5-10 adult brown dog ticks (Rhipicephalus sanguineus), closed with a perforated lid and incubated in a lying position at room temperature and relative humidity. After 48 hours efficacy is determined. The ticks are patted on the ground of the tubes and are incubated on a heating plate at 45-50° C. for at most 5 minutes Immotile or uncoordinated moving ticks, which are not able to escape the heat by climbing upwards, are marked as dead or moribund.
An efficacy of 100% means all ticks are dead or moribund; 0% means no ticks are dead or moribund.

[6] = test system: adult mosquitoes Culex quinquefasciatus strain P00; assay: Culex quinquefasciatus test (CULXFA surface treatment & contact assay); conditions: surface concentration 20 mg/m^2, 30 minutes exposure, 24 hours after contact, read-out: efficacy (mortality)
Description: Culex quinquefasciatus Test (CULXFA Surface Treatment & Contact Assay)
• Solvent: Aceton+2000 ppm rapeseed oil methyl ester (RME)
In order to produce a sufficient, active ingredient containing solution it is necessary to solve the test compound in the solvent-mix (acetone at 2 mg/ml/RME 2 000 ppm). This solution is pipetted onto a glazed tile and after evaporation of the acetone, adult mosquitoes of the species Culex Quinquefasciatus strain P00 are placed onto the dried surface. The exposure time is 30 minutes. Mortality in percent (%) is determined 24 hours after contact of the insects to the treated surface. 100% mortality means that all tested insects are dead, whereas 0% means that no insect died.

[7] = test system: adult flies Musca domestica strain WHO-N; assay: Musca domestica test (MUSCDO surface treatment & contact assay); conditions: surface concentration 4 mg/m^2, 30 minutes exposure, 24 hours after contact, read-out: efficacy (mortality)
Procedure, shortened: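 Compound dissolved in acetone (2 mg/ml) with 2000 ppm rapeseed oil methyl ester and dried onto glazed tiles. Adult WHO-N strain flies were held on the treated surface for 30 minutes, with % mortality scored 24 hours after contact.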

[8] = test system: adult engorged female ticks (Rhipicephalus microplus); assay: Rhipicephalus (Boophilus) microplus injection test; conditions: 168 h, egg deposition monitored after 7 days, read-out: efficacy (infertile eggs)
Procedure, shortened: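 Five adult engorged female ticks each injected with 1 μL of DMSO compound solution into the abdomen, then kept in a climate chamber. Fertile egg deposition assessed after 7 days, with hatching followed to about 42 days; efficacy 100% means all eggs infertile, 0% all fertile.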

[9] = test system: larvae of the southern green stink bug (Nezara viridula); assay: Nezara viridula spray test; conditions: 96 h, 100 g/ha, after 4 days, barley plants
Procedure, shortened: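 Percent mortality of southern green stink bug larvae was recorded at day 4, with 100% meaning all dead. The larvae were placed on barley sprayed with the test solution. That solution was prepared from acetone/dimethylformamide concentrate diluted in emulsifier-containing water (1000 ppm).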

C[C@H](NC(=O)c1cc(Cl)cc(OS(C)(=O)=O)c1)c1ncnn1-c1ccc(C#N)cn1 [Example I-46]
mortality at 100 g/ha [1]: 100%
pest or weed control at 5 µg/cm2, 5 µg/cm2 [2]: 100%
mortality at 100 g/ha [3]: 100%
mortality at 4 ppm [4]: 100%
pest or weed control at 5 µg/cm2, 5 µg/cm2 [5]: 100%
mortality at 20 mg/m2 [6]: 80 to 100%
mortality at 4 mg/m2 [7]: 80 to 100%
pest or weed control at 4 µg/tick ([8]; 4 μg/tick injected): 100%
pest or weed control at 20 µg/tick ([8]; 20 μg/tick injected): 100%
mortality at 100 g/ha [9]: 100%
